Data reported in ChEMBL document CHEMBL1201862, “PubChem BioAssay data set” (2004).
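Following 48 hours of exposure in 96-well plates, responses at five concentrations were used to interpolate endpoints linearly. Abbreviation: GI50, concentration required for 50% inhibition of growth.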 Active and inactive are the calls of the source. No stated cut-off is given here; in the data, active = GI50 up to about 1.1 µM and inactive = higher.

How the values were obtained:
Experiment in all cases: DTP human tumour cell line panel, 48 h
SW-620 = tested on: SW-620
UO-31 = tested on: UO-31
MDA-MB-435 = tested on: MDA-MB-435
SF-268 = tested on: SF-268
LOX IMVI = tested on: LOX IMVI
RPMI-8226 = tested on: RPMI-8226
IGROV-1 = tested on: IGROV-1
SF-539 = tested on: SF-539
SN12C = tested on: SN12C
BT-549 = tested on: BT-549
MDA-MB-231 = tested on: MDA-MB-231
SK-MEL-28 = tested on: SK-MEL-28
A549 = tested on: A549
HOP-62 = tested on: HOP-62
NCI-H522 = tested on: NCI-H522
786-0 = tested on: 786-0
U-251 = tested on: U-251
RXF 393 = tested on: RXF 393
SK-OV-3 = tested on: SK-OV-3

SMILES | GI50 (SW-620) | GI50 (UO-31) | GI50 (MDA-MB-435) | GI50 (SF-268) | GI50 (LOX IMVI) | GI50 (RPMI-8226) | GI50 (IGROV-1) | GI50 (SF-539) | GI50 (SN12C) | GI50 (BT-549) | GI50 (MDA-MB-231) | GI50 (SK-MEL-28) | GI50 (A549) | GI50 (HOP-62) | GI50 (NCI-H522) | GI50 (786-0) | GI50 (U-251) | GI50 (RXF 393) | GI50 (SK-OV-3)
O=C(c1cc2c(c3ccccc13)NC1(CCCCC1)N=C2C(F)(F)F)C(F)(F)F | 4.7 µM (inactive) | 3.62 µM (inactive) | 3.23 µM (inactive) | 5.85 µM (inactive) | 3.33 µM (inactive) | 3.47 µM (inactive) | 4.93 µM (inactive) | 2.53 µM (inactive) | 3.66 µM (inactive) | 4.37 µM (inactive) | 3.14 µM (inactive) | 9.1 µM (inactive) | 4.35 µM (inactive) | 40.5 µM (inactive) | 2.65 µM (inactive) | 3.82 µM (inactive) | 3.78 µM (inactive) | 3.66 µM (inactive) | 5.61 µM (inactive)
C/C(=N/NC(=S)N(C)CCc1ccccn1)c1cnccn1 | < 0.01 µM (active) | < 0.0182 µM (active) | 0.867 µM (active) | < 0.01 µM (active) | < 0.01 µM (active) | < 0.01 µM (active) | < 0.01 µM (active) | 0.118 µM (active) | < 0.01 µM (active) | 0.398 µM (active) | < 0.01 µM (active) | 0.933 µM (active) | 0.078 µM (active) | < 0.0246 µM (active) | < 0.01 µM (active) | 0.0977 µM (active) | < 0.01 µM (active) | 0.465 µM (active) | 0.0235 µM (active)
CC(C)OP(=O)(OC(C)C)C(C(C)C)N(C)/C(N)=N\C1=NC(C(F)(F)F)(C(F)(F)F)N=C(C(C(F)(F)F)C(F)(F)F)O1 (centres undefined) | 2.28 µM (inactive) | 4.47 µM (inactive) | 1.8 µM (inactive) | 2.62 µM (inactive) | 1.79 µM (inactive) | 1.97 µM (inactive) | 2.39 µM (inactive) | 3.75 µM (inactive) | 3.15 µM (inactive) | 2.79 µM (inactive) | 1.99 µM (inactive) | 3.18 µM (inactive) | 2.88 µM (inactive) | 3.96 µM (inactive) | 1.41 µM (inactive) | 3.7 µM (inactive) | 3.08 µM (inactive) | 1.6 µM (inactive) | 5.4 µM (inactive)
COC(=O)C(CCC1C=CCC1)/N=C\c1ccccc1 (centres undefined) | > 100 µM (inactive) | 51.9 µM (inactive) | 60.3 µM (inactive) | 99.8 µM (inactive) | 76.7 µM (inactive) | 24.5 µM (inactive) | > 100 µM (inactive) | > 100 µM (inactive) | 60.4 µM (inactive) | 78.5 µM (inactive) | 68.9 µM (inactive) | > 100 µM (inactive) | 49.9 µM (inactive) | 68.5 µM (inactive) | 54.2 µM (inactive) | 66.2 µM (inactive) | 52.1 µM (inactive) | 58.5 µM (inactive) | > 100 µM (inactive)
O=C(O)c1ccc2c(c1)CC1(C2)Cc2ccccc2C1=O (centres undefined) | > 100 µM (inactive) | > 100 µM (inactive) | > 100 µM (inactive) | > 100 µM (inactive) | > 100 µM (inactive) | > 100 µM (inactive) | > 100 µM (inactive) | > 100 µM (inactive) | > 100 µM (inactive) | > 100 µM (inactive) | > 100 µM (inactive) | > 100 µM (inactive) | > 100 µM (inactive) | > 100 µM (inactive) | > 100 µM (inactive) | > 100 µM (inactive) | > 100 µM (inactive) | > 100 µM (inactive) | > 100 µM (inactive)
CN(CCNC(=O)c1n[nH]c2c1ccc1ccccc12)CCNC(=O)c1n[nH]c2c1ccc1ccccc12 | 1.84 µM (inactive) | 7.35 µM (inactive) | 1.79 µM (inactive) | 2.14 µM (inactive) | 1.78 µM (inactive) | 2.18 µM (inactive) | 1.77 µM (inactive) | 1.79 µM (inactive) | 1.8 µM (inactive) | 20.2 µM (inactive) | 1.94 µM (inactive) | 1.93 µM (inactive) | 2.07 µM (inactive) | 2.11 µM (inactive) | 1.95 µM (inactive) | 1.75 µM (inactive) | 1.93 µM (inactive) | 1.94 µM (inactive) | 4.79 µM (inactive)
Cc1cc(C)n(CN(Cn2nc(C)cc2C)c2ccccc2)n1 | 18.2 µM (inactive) | 21.7 µM (inactive) | 13.7 µM (inactive) | 20.4 µM (inactive) | 1.5 µM (inactive) | 18.4 µM (inactive) | 25.5 µM (inactive) | 19.4 µM (inactive) | 35.1 µM (inactive) | 21.8 µM (inactive) | 37.6 µM (inactive) | 19.6 µM (inactive) | 26.8 µM (inactive) | 23.7 µM (inactive) | 23.2 µM (inactive) | 21.4 µM (inactive) | 17.8 µM (inactive) | 19.3 µM (inactive) | 40.9 µM (inactive)
Cc1c([N+](=O)[O-])oc2ccc3ccccc3c12 | 20.2 µM (inactive) | 34.6 µM (inactive) | 12.4 µM (inactive) | 35.7 µM (inactive) | 18.5 µM (inactive) | 9.33 µM (inactive) | 12.1 µM (inactive) | 28.2 µM (inactive) | 12.5 µM (inactive) | > 100 µM (inactive) | > 100 µM (inactive) | > 100 µM (inactive) | 66.1 µM (inactive) | > 100 µM (inactive) | 3.86 µM (inactive) | 18.1 µM (inactive) | 65.6 µM (inactive) | 21.4 µM (inactive) | 20.8 µM (inactive)
Clc1ccccc1/C=C/c1nsc(/C=C/c2ccccc2Cl)n1 |  | > 100 µM (inactive) | 42.6 µM (inactive) | 55.5 µM (inactive) | 37.2 µM (inactive) | 31.3 µM (inactive) | 84.1 µM (inactive) | 78.5 µM (inactive) | 23.6 µM (inactive) | 92 µM (inactive) | 60 µM (inactive) | > 100 µM (inactive) | 73.8 µM (inactive) | 36.6 µM (inactive) | 33.1 µM (inactive) | 19 µM (inactive) | 34.8 µM (inactive) | > 100 µM (inactive) | 70.1 µM (inactive)
CC(=O)O[C@H]1CC[C@@]2(C)C(=CC[C@H]3[C@@H]4CC[C@H](c5cc(C(F)(F)F)n(C(C)=O)n5)[C@@]4(C)CC[C@@H]32)C1 | 12.9 µM (inactive) | 1.67 µM (inactive) | 9.27 µM (inactive) | 24.8 µM (inactive) | 7.4 µM (inactive) | 2.8 µM (inactive) | 3.84 µM (inactive) | 6.47 µM (inactive) | 7.57 µM (inactive) | 10.7 µM (inactive) | 4.98 µM (inactive) | 13.6 µM (inactive) | 6.11 µM (inactive) | 8.2 µM (inactive) | 17.1 µM (inactive) | 5.38 µM (inactive) | 4.79 µM (inactive) | 5.68 µM (inactive) | 12.5 µM (inactive)
Cc1ccc(S(=O)(=O)NNC(=O)c2cc(C)ccc2NC(=O)C23CC4CC(CC(C4)C2)C3)cc1 | 92.9 µM (inactive) | 21.6 µM (inactive) | 61.9 µM (inactive) | 41.7 µM (inactive) | > 100 µM (inactive) | > 100 µM (inactive) | 12.6 µM (inactive) | 52.1 µM (inactive) | 44.4 µM (inactive) | > 100 µM (inactive) | 41.6 µM (inactive) |  | 29.4 µM (inactive) | 29.3 µM (inactive) | 20.2 µM (inactive) | 21.9 µM (inactive) | 27.6 µM (inactive) | 25.4 µM (inactive) | 22.6 µM (inactive)
O=C1C2CC=CCC2C(=O)N1n1c(Cc2ccccc2)n[nH]c1=O (centres undefined) | > 100 µM (inactive) | > 100 µM (inactive) | > 100 µM (inactive) | > 100 µM (inactive) | > 100 µM (inactive) | > 100 µM (inactive) | > 100 µM (inactive) | > 100 µM (inactive) | > 100 µM (inactive) | > 100 µM (inactive) | > 100 µM (inactive) |  | > 100 µM (inactive) | > 100 µM (inactive) | > 100 µM (inactive) | > 100 µM (inactive) | > 100 µM (inactive) | > 100 µM (inactive) | > 100 µM (inactive)
O=c1[nH]c(Cc2ccccc2)nc2c1sc1nc3ccccc3n12 | > 100 µM (inactive) | > 100 µM (inactive) | > 100 µM (inactive) | > 100 µM (inactive) | > 100 µM (inactive) | > 100 µM (inactive) | > 100 µM (inactive) | > 100 µM (inactive) | > 100 µM (inactive) | > 100 µM (inactive) | > 100 µM (inactive) | > 100 µM (inactive) | > 100 µM (inactive) |  | > 100 µM (inactive) | > 100 µM (inactive) | > 100 µM (inactive) | > 100 µM (inactive) | > 100 µM (inactive)
Cc1cccc(-c2cc(O)c3c(C)ccnc3n2)c1 | 0.169 µM (active) |  | 0.0463 µM (active) | 10 µM (inactive) | 0.667 µM (active) | 0.468 µM (active) | 0.681 µM (active) | 0.456 µM (active) | 0.564 µM (active) | > 100 µM (inactive) | 0.745 µM (active) | > 61.1 µM (inactive) | 0.71 µM (active) | 0.597 µM (active) | 0.247 µM (active) | 0.564 µM (active) | 0.407 µM (active) | 0.455 µM (active) | 0.53 µM (active)
O=C(/C=C/c1ccsc1)c1ccco1 | 7.55 µM (inactive) | 8.87 µM (inactive) | 20 µM (inactive) | 17.1 µM (inactive) | 3.1 µM (inactive) | 3.52 µM (inactive) | 10.4 µM (inactive) | 14.4 µM (inactive) | 14.6 µM (inactive) | 18.5 µM (inactive) | 12.7 µM (inactive) | 12.8 µM (inactive) |  | 14.9 µM (inactive) | 1.76 µM (inactive) | 12.1 µM (inactive) | 7.67 µM (inactive) | 13.3 µM (inactive) | 18.5 µM (inactive)
